One data set concerns HCT116. The format is cell-based. The conditions noted are these: for TGI (total growth inhibition) / GI50 / CC50: 48 hour incubation, unit not given (tested from 100 μM); for GI50: read-out: GI50 (dose inhibiting 50% cell growth); for CC50: read-out: LC50 (dose killing 50% of initially seeded cells). The procedure: (§1) Anticancer activity tests were made on colon (HCT116, HT29, HCT15), lung (A549, H460) and ovarian (OVCARS, OVCAR3, NCI-ADRRES) cancer cell lines in vitro. All cell lines were obtained from American Type Culture Collection (Manassas, Va., USA) or American National Cancer Institute (NCl, USA). All cell lines were grown in RPMI1640 medium supplemented with 25 mM HEPES, 2 mM L-Glutamine, 5-10% fetal calf serum and antibiotics at 37° C. in a humidified 5% CO2 atmosphere.
(§2) The effect of the aforementioned compound on the selected cell lines indicated above was tested with Sulforhodamine B (SRB) assay that is also used by American National Cancer Institute. 100 μL of cancer cells were seeded at densities between 5.000-40.000 per well of a 96 well plate. The cells were incubated for 24 h for adaptation. […] The tested complex was dissolved in DMSO at 100 μM initial concentration and diluted to obtain 10 different concentrations as 1:2, 1:4 or 1:10. Every different concentration was analyzed in triplicates and in two independent experiments. The cells were fixed with 50% (w/v) ice-cold TCA in situ after 48 hour incubation. SRB dye bound to the cells was dissolved by unbuffered 10 mM Tris solution and absorbance values were measured at 530 nm in an ELISA microplate reader. Percentages for cell growth that were calculated from absorbance measurements (initial: TZ, control: C, complex at different concentrations: Ti) are as described below:
(§3) Gl50 (dose inhibiting 50% cell growth)=[Ti−Tz)/(C-Tz)]×100=50
(§4) TGI (total growth inhibition): Ti=Tz
(§5) LC50 (dose killing 50% of initially seeded cells)=[(Ti−Tz)/Tz]×100=−50

The test system of a further data set is OVCAR5. The format is cell-based. The conditions noted are these: 48 hour incubation, unit not given (tested from 100 μM); for GI50: read-out: GI50 (dose inhibiting 50% cell growth); for CC50: read-out: LC50 (dose killing 50% of initially seeded cells). How it is done:
as §1, §2, §3, §4, §5

The next data set has as its system NCI-ADRRES. It is filed as cell-based. The conditions noted are these: 48 hour incubation, unit not given (tested from 100 μM); for GI50: read-out: GI50 (dose inhibiting 50% cell growth); for CC50: read-out: LC50 (dose killing 50% of initially seeded cells). The procedure:
as §1, §2, §3, §4, §5

The subject of the next data set is A549. The format is cell-based. The conditions noted are these: 48 hour incubation, unit not given (tested from 100 μM); for GI50: read-out: GI50 (dose inhibiting 50% cell growth); for CC50: read-out: LC50 (dose killing 50% of initially seeded cells). How it is done: as §1, §2, §3, §4, §5
The subject of a further data set is H460. It is filed as cell-based. The conditions noted are these: 48 hour incubation, unit not given (tested from 100 μM); for GI50: read-out: GI50 (dose inhibiting 50% cell growth); for CC50: read-out: LC50 (dose killing 50% of initially seeded cells). How it is done:
as §1, §2, §3, §4, §5

The subject of another data set is OVCAR3. The format is cell-based. The conditions noted are these: 48 hour incubation, unit not given (tested from 100 μM); for GI50: read-out: GI50 (dose inhibiting 50% cell growth). How it is done:
as §1, §2, §3, §4, §5

In another data set the test system is HT29. It is filed as cell-based. The conditions noted are these: for TGI (total growth inhibition) / GI50 / CC50: 48 hour incubation, unit not given (tested from 100 μM); for GI50: read-out: GI50 (dose inhibiting 50% cell growth); for CC50: read-out: LC50 (dose killing 50% of initially seeded cells). How it is done:
as §1, §2, §3, §4, §5

For the next data set, the system named is HCT15. It is filed as cell-based. The conditions noted are these: for TGI (total growth inhibition) / GI50 / CC50: 48 hour incubation, unit not given (tested from 100 μM); for GI50: read-out: GI50 (dose inhibiting 50% cell growth); for CC50: read-out: LC50 (dose killing 50% of initially seeded cells). The procedure:
as §1, §2, §3, §4, §5

For the next data set, the system named is HCT116 cancer cells. Kind of data set: HCT116 xenograft study in NOD/SCID mice. It is filed as in vivo. Details: key to tumor size: tumor volume in mm^3, (a×b²)/2 from caliper length and width. The conditions noted are these: for tumor size / ΔT/ΔC % value: HCT116 xenograft, complex 40 mg/kg, oxaliplatin 5 mg/kg; for tumor size: no unit in table (method gives tumor volume in mm^3); for ΔT/ΔC % value: day 22, highly active compounds have values less than 42%. How it is done: Xenograft studies were made by using HCT116 colon cancer cell lines after observing that the subject of the invention, palladium(II) complex, is especially effective on colon cancer cells. […] To obtain the xenografts, approximately 10^6 cells from exponentially growing HCT116 cells were intradermally injected in the axillae of 6-8 weeks old NOD/SCID mice by using the English double sided trocar implantation method. Two separate injections were made to each mouse. Two tumor inocula were added to each mouse in order to produce one tumor load for each mouse. […] These positive effects are the beneficial aspects of the English system.
Treatment was started in randomly chosen animal groups when the tumor volume reached 100-200 mm^3. […] The treatment was performed in 5 days of application and 2 days of resting periods. Tumor volume was calculated from [(axb^2)/2] formula. In this formula, a and b are tumor length and width which are measured by vernier caliper. Measurements were repeated twice weekly. Treated animals received a single dose from the drugs. Apart from tumor volume, ΔT/ΔC % values were calculated from ΔT═T−D0 and ΔC═C−D0 equations. D0 is the mean tumor volume at the beginning of the treatment, T is the mean tumor volume of treated mice and C is the mean tumor volume of untreated (not injected with complex) mice which is used as a control. […] Weight loss, neurological disorders and changes in diet were recorded as indication of toxicity (side effects). The experiments were terminated when the tumor volume reached approximately to 1000-1500 mm^3.

The subject of another data set is A549 cells. The conditions noted are these: cited from earlier work.
The mark [1] stands for this setting: versus cisplatin, oxaliplatin and carboplatin.
Setting [2] is: Day 19 (value equal in all groups, start of treatment).

The text below walks through data of US9839643B2, “Palladium complex with high anticancer activity” (ULUDAG ÜNIVERSITESI TTO, priority 2014, dated 2017).

Bounds are passed on as bounds.

What is called GI50 is the concentration at which growth is held to half of that of the control. For the compound `CCC1(CC)C(=O)NC(=O)[N]([Pd-2]23[n+]4ccccc4C[NH+]2Cc2cccc[n+]23)C1=O.O.[Cl-]` [[Pd(bpma)(barb)]Cl•H2O, [Pd(bpma)(barb)]Cl·H2O], the “TGI (total growth inhibition)” value was 9.1 in the data set with HCT116; 63.5 in the data set on OVCAR5; 10.0 in the data set with NCI-ADRRES; 80.1 in the data set on A549; 75.9 in the data set on H460; 25.2 in the data set on OVCAR3. Further, the results for the “TGI (total growth inhibition)” value in the data set on HT29 and with HCT15 were 6.6 and 9.9, respectively. The GI50 was 4.9 µM in the data set on HCT116; 40 µM with OVCAR5; 5.6 µM with NCI-ADRRES; 43.1 µM in the data set with A549; 44.4 µM in the data set with H460; 6.5 µM in the data set with OVCAR3. Moreover, the 50% growth inhibitory concentration (GI50) in the data set with HT29 was 3 µM; in the data set with HCT15 it was 6.8 µM. In addition, the CC50 is 82.4 µM with HCT116; 87 µM in the data set on OVCAR5; > 100 µM in the data set with NCI-ADRRES; > 100 µM in the data set with A549; > 100 µM in the data set with H460; 22 µM in the data set on HT29. In the data set on HCT15, the CC50 was found to be 89.1 µM. In addition, the “cytotoxic effect compared to anticancer drugs” value in the data set with HCT116 (setting [1]), in the data set with HT29 (setting [1]) and in the data set on HCT15 (setting [1]) was “selectively effective” in each case. In addition, the tumor size in the data set with HCT116 cancer cells (setting [2]) stood at 245.96; in the data set on HCT116 cancer cells (Day 22), 195.61 ± 151.45; with HCT116 cancer cells (Day 26), 373.88 ± 157.42; in the data set on HCT116 cancer cells (Day 29), 577.38 ± 157.37; in the data set with HCT116 cancer cells (Day 33) it was 782.22 ± 228.55. Further, the “decrease of tumor volume compared to oxaliplatin” value in the data set on HCT116 cancer cells (all time points of measurement, complex 40 mg/kg vs oxaliplatin 5 mg/kg) is given as “decreased the tumor volume more effectively than oxaliplatin in all time points of measurement”. Besides, the ΔT/ΔC % value in the data set with HCT116 cancer cells is recorded as −29.88%.

For the compound `O=C1[O][Pt]2([NH][C@@H]3CCCC[C@H]3[NH]2)[O]C1=O` [Oxaliplatin, oxaliplatin], the “TGI (total growth inhibition)” value in the data set with HCT116 is reported as 64.1; in the data set with OVCAR5, >100; in the data set on NCI-ADRRES it was >100; in the data set on A549, 58.2; in the data set with H460, 95.6; in the data set on OVCAR3, >100. The “TGI (total growth inhibition)” value is 56.5 in the data set on HT29 and 17.2 in the data set with HCT15. Besides, the GI50 amounted to 0.9 µM with HCT116; 50.7 µM in the data set with OVCAR5; 24.8 µM in the data set with NCI-ADRRES; 4.4 µM in the data set on A549; 6.8 µM in the data set with H460; 9.1 µM in the data set with OVCAR3. Besides, the results for the GI50 in the data set on HT29 and with HCT15 were 6.3 µM and 6 µM, respectively. Besides, the tumor size with HCT116 cancer cells (setting [2]) is 245.96; in the data set with HCT116 cancer cells (Day 22), 361.82 ± 153.96; in the data set with HCT116 cancer cells (Day 26), 538.00 ± 203.51; in the data set on HCT116 cancer cells (Day 29) it was 622.29 ± 152.76; in the data set with HCT116 cancer cells (Day 33) it was 847.06 ± 176.45. The ΔT/ΔC % value result in the data set with HCT116 cancer cells is reported as “+70.60%”.

In the case of `N.N.[Cl][Pt][Cl]` [Cisplatin, cisplatin], the “TGI (total growth inhibition)” value in the data set on HCT116 was 90.2; in the data set on OVCAR5, >100; in the data set on NCI-ADRRES, >100; in the data set on A549 it was 55.1; with H460, 50.3; in the data set on OVCAR3, >100. The “TGI (total growth inhibition)” value in the data set with HT29 is on record as 92.0; in the data set with HCT15 it was 85.9. For the same compound, the GI50 is 24.8 µM with HCT116; 57.8 µM in the data set with OVCAR5; 9.9 µM with NCI-ADRRES; 6.6 µM with A549; 8.9 µM in the data set on H460; 34.3 µM in the data set with OVCAR3. Further, the GI50 was 29.8 µM in the data set on HT29 and 57.3 µM in the data set with HCT15.

As for `O.O.O=C1[N-]S(=O)(=O)c2ccccc21.[Cl][Pd-2]12[n+]3ccccc3C[NH+]1Cc1cccc[n+]12` [[Pd(bpma)Cl](sac)·2H2O], in the data set on A549 cells, the cytotoxic effect entry is listed as “showed a cytotoxic effect on A549 cells, similar to cisplatin”.

As for `N.N.O=C([O-])C1(C(=O)[O-])CCC1.[Pt+2]` [Carboplatin, carboplatin], the “TGI (total growth inhibition)” value in the data set with HCT116, in the data set on OVCAR5, in the data set on NCI-ADRRES, in the data set with A549, with H460 and in the data set on OVCAR3 was >100 each time. The “TGI (total growth inhibition)” value in the data set on HT29 and in the data set with HCT15 was >100 each time. Further, the GI50 with HCT116, with OVCAR5, with NCI-ADRRES, in the data set on A549, in the data set with H460 and in the data set on OVCAR3 was > 100 µM each time. For the same compound, the GI50 in the data set with HT29 and in the data set with HCT15 was > 100 µM in each case. Also, the CC50 in the data set with HCT116, with OVCAR5, in the data set on NCI-ADRRES, with A549, with H460 and in the data set with HT29 was > 100 µM in each case. In the data set on HCT15, the CC50 was > 100 µM.
